{"source": "patent US5393775A", "about": "“Benzopyran compounds” (Adir et Compagnie, priority 1992, dated 1995)", "key": {"[1]": {"system": "rat brain homogenates (spontaneous peroxidation of lipids)", "test": "spontaneous lipid peroxidation on rat brain homogenates", "format": "biochemical", "conditions": "at 10^-5 M, 60 minutes at 37° C.", "procedure": "(§1) The action of the compounds of the invention, which are capable of trapping .OH radicals, was studied, on the one hand, on the spontaneous peroxidation of lipids and, on the other hand, on the peroxidation induced by the Fe^2+ /ascorbate (10 μm/250 μm) system on rat brain homogenates.\n(§2) During the measurement of the spontaneous lipid peroxidation, the rat brain homogenates are placed in the presence or in the absence of the compounds to be tested for 60 minutes at 37° C. The reaction is halted at 0° C. and the quantitative determination of malondialdehyde is carried out using thiobarbituric acid by the method of Yagi, K., (1976), Biochem. Med., 15, 212-216. Lipid peroxidation is determined by the substances reacting with thiobarbituric acid expressed in nanomoles of malondialdehyde.\n(§3) The concentrations of the tested compounds which inhibit by 50 % the peroxidation of the substrate or the antioxidizing activity of the compounds of the invention at a concentration of 10^-5 M are calculated."}, "[2]": {"system": "rat brain homogenates (peroxidation induced by the Fe^2+ /ascorbate system)", "test": "lipid peroxidation induced by Fe^2+/ascorbate on rat brain homogenates", "format": "biochemical", "conditions": "at 10^-5 M, 60 minutes at 37° C.", "procedure": "as §1, §2\nDuring the measurement of the induced lipid peroxidation, the methodology is identical to the above with the exception of the addition to the homogenate of the radical inductive system: Fe^2+ /ascorbate. The reference substances are probucol and vitamin E.\nas §3"}, "[3]": {"system": "lipoxygenase of human polynuclear cells (LTB4)", "test": "inhibition of the synthesis of LTB4 (lipoxygenase) in human polynuclear cells activated by A23187", "format": "cell-based", "conditions": "for inhibition at 10 µM: at 10^-5 M; for IC50: read-out: INHIBITION OF THE SYNTHESIS OF LTB4, CON[…] BY 50% (IC50 in M), read-out: INHIBITION OF THE SYNTHESIS OF LTB4, CONCENTRATION INHIBITING SYNTHESIS BY 50% (IC50 in M)", "procedure": "The inhibitory activity of the compounds of formula (I) used according to the invention on the synthesis of eicosanoids is measured on washed human polynuclear cells, in the presence or in the absence of the compound to be tested, after activation of these cells by calcium (calcium ionophore A23187).\nThe production of the main eicosanoid, resulting from lipoxygenase, produced by human polynuclear cells: leukotriene B4 (LTB4), is measured by a radioimmunological test."}}}
{"smiles": "Cc1c(C)c2c(c(C)c1O)CCC(C)(C(=S)Nc1ccccc1)O2", "note": "(stereo not drawn) [Example 2, N-phenyl-6-hydroxy-3,4-dihydro-2,5,7,8-tetramethyl-2H-1-benzopyran-2-thiocarboxamide]", "values": [{"measurement": "INHIBITION OF THE PEROXIDATION WITH RESPECT TO THE CONTROL, SPONTANEOUS PEROXIDATION", "setting": "[1]", "value": 100}, {"measurement": "INHIBITION OF THE PEROXIDATION WITH RESPECT TO THE CONTROL, INDUCED PEROXIDATION", "setting": "[2]", "value": 100}, {"measurement": "inhibition at 10 µM", "setting": "[3]", "value": "> 99", "unit": "%"}, {"measurement": "IC50", "setting": "[3]", "value": 300, "unit": "nM"}]}
{"smiles": "Cc1cc(C)c(NC(=S)C2(C)CCc3c(C)c(O)c(C)c(C)c3O2)cc1C", "note": "(stereo not drawn) [Example 4, N-(2,4,5-trimethylphenyl)-6-hydroxy-3,4-dihydro-2,5,7,8-tetramethyl-2H-1-benzopyran-2-thiocarboxamide]", "values": [{"measurement": "INHIBITION OF THE PEROXIDATION WITH RESPECT TO THE CONTROL, SPONTANEOUS PEROXIDATION", "setting": "[1]", "value": 98}, {"measurement": "INHIBITION OF THE PEROXIDATION WITH RESPECT TO THE CONTROL, INDUCED PEROXIDATION", "setting": "[2]", "value": 100}, {"measurement": "inhibition at 10 µM", "setting": "[3]", "value": "> 99", "unit": "%"}, {"measurement": "IC50", "setting": "[3]", "value": 500, "unit": "nM"}]}
{"smiles": "Cc1cc(C)nc(NC(=S)C2(C)CCc3c(C)c(O)c(C)c(C)c3O2)c1", "note": "(stereo not drawn) [Example 6, N-(4,6-dimethylpyrid-2-yl)-6-hydroxy-3,4-dihydro-2,5,7,8-tetramethyl-2H-1-benzopyran-2-thiocarboxamide]", "values": [{"measurement": "inhibition at 10 µM", "setting": "[3]", "value": "> 99", "unit": "%"}, {"measurement": "IC50", "setting": "[3]", "value": 600, "unit": "nM"}]}
{"smiles": "COc1cc(NC(=S)C2(C)CCc3c(C)c(O)c(C)c(C)c3O2)cc(OC)c1OC", "note": "(stereo not drawn) [Example 8, N-(3,4,5-trimethoxyphenyl)-6-hydroxy-3,4-dihydro-2,5,7,8-tetramethyl-2H-1-benzopyran-2-thiocarboxamide]", "values": [{"measurement": "inhibition at 10 µM", "setting": "[3]", "value": "> 99", "unit": "%"}]}
{"smiles": "Cc1cccc(C)c1NC(=S)C1(C)CCc2c(C)c(O)c(C)c(C)c2O1", "note": "(stereo not drawn) [Example 26, N-(2,6-dimethylphenyl)-6-hydroxy-3,4-dihydro-2,5,7,8-tetramethyl-2H-1-benzopyran-2-thiocarboxamide]", "values": [{"measurement": "INHIBITION OF THE PEROXIDATION WITH RESPECT TO THE CONTROL, SPONTANEOUS PEROXIDATION", "setting": "[1]", "value": 99}, {"measurement": "INHIBITION OF THE PEROXIDATION WITH RESPECT TO THE CONTROL, INDUCED PEROXIDATION", "setting": "[2]", "value": 100}, {"measurement": "inhibition at 10 µM", "setting": "[3]", "value": "> 99", "unit": "%"}, {"measurement": "IC50", "setting": "[3]", "value": 500, "unit": "nM"}]}
{"smiles": "Cc1c(C)c2c(c(C)c1O)CCC(C)(C(=S)N1CCN(c3ccccc3)CC1)O2", "note": "(stereo not drawn) [Example 84, 1-[(3,4-dihydro-6-hydroxy-2,5,7,8-tetramethyl-2H-1-benzopyran-2-yl)thiocarbonyl]-4-phenylpiperezine]", "values": [{"measurement": "inhibition at 10 µM", "setting": "[3]", "value": "> 99", "unit": "%"}, {"measurement": "IC50", "setting": "[3]", "value": 300, "unit": "nM"}]}
{"smiles": "Cc1c(C)c2c(c(C)c1O)CCC(C)(C(=S)N1CCN(c3ccccn3)CC1)O2", "note": "(stereo not drawn) [Example 86, 1-[(3,4-dihydro-6-hydroxy-2,5,7,8-tetramethyl-2H-1-benzopyran-2-yl)thiocarbonyl]-4-(2-pyridyl)piperazine]", "values": [{"measurement": "inhibition at 10 µM", "setting": "[3]", "value": "> 99", "unit": "%"}, {"measurement": "IC50", "setting": "[3]", "value": 200, "unit": "nM"}]}
{"smiles": "Cc1c(C)c2c(c(C)c1O)CCC(C)(C(=S)N1CCN(c3ccc(F)cc3)CC1)O2", "note": "(stereo not drawn) [Example 88, 1-[(3,4-dihydro-6-hydroxy-2,5,7,8-tetramethyl-2H-1-benzopyran-2-yl)thiocarbonyl]-4-(4-fluorophenyl)piperazine]", "values": [{"measurement": "inhibition at 10 µM", "setting": "[3]", "value": "> 99", "unit": "%"}, {"measurement": "IC50", "setting": "[3]", "value": 100, "unit": "nM"}]}
{"smiles": "Cc1c(C)c2c(c(C)c1O)CCC(C)(C(=S)N1CCN(c3ccc(Cl)cc3)CC1)O2", "note": "(stereo not drawn) [Example 92, 1-[(3,4-dihydro-6-hydroxy-2,5,7,8-tetramethyl-2H-1-benzopyran-2-yl)thiocarbonyl]-4-(4-chlorophenyl)piperazine]", "values": [{"measurement": "inhibition at 10 µM", "setting": "[3]", "value": "> 99", "unit": "%"}, {"measurement": "IC50", "setting": "[3]", "value": 200, "unit": "nM"}]}
{"smiles": "COc1ccc(CN2CCN(C(=S)C3(C)CCc4c(C)c(O)c(C)c(C)c4O3)CC2)c(OC)c1OC", "note": "(stereo not drawn) [Example 94, 1-[(3,4-dihydro-6-hydroxy-2,5,7,8-tetramethyl-2H-1-benzopyran-2-yl)thiocarbonyl]-4-(2,3,4-trimethoxybenzyl)piperazine]", "values": [{"measurement": "inhibition at 10 µM", "setting": "[3]", "value": "> 99", "unit": "%"}, {"measurement": "IC50", "setting": "[3]", "value": 300, "unit": "nM"}]}
{"smiles": "Cc1c(C)c2c(c(C)c1O)CCC(C)(C(=S)N1CCN(C(O)(c3ccccc3)c3ccccc3)CC1)O2", "note": "(stereo not drawn) [Example 98, 1-[(3,4-dihydro-6-hydroxy-2,5,7,8-tetramethyl-2H-1-benzopyran-2-yl)thiocarbonyl]-4-(1-hydroxy-1,1-diphenylmethyl)piperazine]", "values": [{"measurement": "inhibition at 10 µM", "setting": "[3]", "value": "> 99", "unit": "%"}, {"measurement": "IC50", "setting": "[3]", "value": 1300, "unit": "nM"}]}
